Source: patent US20260098013A1, “Stereoisomer Conjugates of Dextrorphan” (priority 2024, published 2026)

Conditions: rat, in vivo; for AUC0-6 h / Cmax / Tmax: 6 mg/kg

SMILES | time to reach maximum plasma concentration after administration (Sprague-Dawley, po) | Exposure Ratio AUC (Sprague-Dawley, po) [%] | Exposure Ratio Cmax (Sprague-Dawley, po) [%] | AUC0-6 h (Sprague-Dawley, po) [ng·h/mL] | Cmax (Sprague-Dawley, po) [ng/mL] | Tmax (Sprague-Dawley, po) [h] | steadiness of plasma concentration | AUC compared to dextrorphan tartrate (po) | Cmax compared to dextrorphan tartrate (po) | oral dextrorphan bioavailability / exposure compared to dextrorphan tartrate (po) | fold increase in AUC0-6h compared to dextrorphan tartrate (Sprague-Dawley, po) | fold increase in Cmax compared to dextrorphan tartrate (Sprague-Dawley, po) [fold] | oral bioavailability compared to the other diastereomer of the same prodrug (po) | dextrorphan AUC0-6h, times higher compared to dextrorphan tartrate (po) | dextrorphan Cmax, times higher compared to dextrorphan tartrate (po)
CN1CC[C@]23CCCC[C@H]2[C@H]1Cc1ccc(O)cc13 [Dextrorphan, (+)-17-methylmorphinan-3-ol] | approximately 30 minutes |  |  |  |  |  |  |  |  |  |  |  |  |  | 
CC(=O)N[C@@H](C)C(=O)Oc1ccc2c(c1)[C@]13CCCC[C@@H]1C(C2)N(C)CC3 [3-(N-Ac-L-Ala)-dextrorphan] |  | 40 | 35 | 29.6 | 18.2 | 0.7 | steadier | much smaller | much smaller | decreasing bioavailability |  |  |  |  | 
CC(C)[C@H](NC(=O)[C@H](N)C(C)C)C(=O)Oc1ccc2c(c1)[C@]13CCCC[C@@H]1C(C2)N(C)CC3 [3-(D-Val-D-Val)-dextrorphan] |  |  |  |  |  |  |  | larger | larger |  | about 4.5 fold | ~2.7 | significantly increased |  | 
CC(C)[C@H](N)C(=O)N[C@H](C(=O)Oc1ccc2c(c1)[C@]13CCCC[C@@H]1C(C2)N(C)CC3)C(C)C [3-(L-Val-L-Val)-dextrorphan] |  | 85 | 128 | 78.5 | 98.9 | 0.5 |  | slightly lower |  | good oral bioavailability |  |  |  |  | 
CC(=O)N[C@@H](C(=O)Oc1ccc2c(c1)[C@]13CCCC[C@@H]1C(C2)N(C)CC3)C(C)C [3-(N-Ac-D-Val)-dextrorphan] |  | 556 | 180 | 467.4 | 127.7 | 3.0 |  | higher | higher |  |  |  |  | more than 5 times | about 1.8 times
C[C@H](N)C(=O)N[C@@H](C)C(=O)Oc1ccc2c(c1)[C@]13CCCC[C@@H]1C(C2)N(C)CC3 [3-(L-Ala-L-Ala)-dextrorphan] |  | 147 | 217 | 88.3 | 87.3 | 0.8 |  | larger | larger |  |  |  |  | about 1.5 times | over 2 times
CC(=O)N[C@H](C)C(=O)Oc1ccc2c(c1)[C@]13CCCC[C@@H]1C(C2)N(C)CC3 [3-(N-Ac-D-Ala)-dextrorphan] |  |  | 32 | 30.8 | 16.5 | 1.6 | steadier | much smaller | much smaller |  |  |  |  |  | 
C[C@@H](N)C(=O)N[C@H](C)C(=O)Oc1ccc2c(c1)[C@]13CCCC[C@@H]1C(C2)N(C)CC3 [3-(D-Ala-D-Ala)-dextrorphan] |  | 59 | 43 | 24.7 | 9.6 | 2.1 |  | lower | smaller | lower |  |  |  |  | 
CC(C)[C@@H](NC(=O)[C@@H](C)N)C(=O)Oc1ccc2c(c1)[C@]13CCCC[C@@H]1C(C2)N(C)CC3 [3-(D-Ala-D-Val)-dextrorphan] |  |  |  |  |  |  |  | larger | larger | superior |  |  |  |  | 
CC(=O)N[C@H](Cc1ccccc1)C(=O)Oc1ccc2c(c1)[C@]13CCCC[C@@H]1[C@H](C2)N(C)CC3 [3-(N-Ac-D-Phe)-dextrorphan] |  | 30 | 11 | 19.1 | 4.7 | 5.0 | much steadier | much smaller | much smaller |  |  |  |  |  | 
CC(=O)N[C@H](C(=O)Oc1ccc2c(c1)[C@]13CCCC[C@@H]1C(C2)N(C)CC3)C(C)C [3-(N-Ac-L-Val)-dextrorphan] |  | 37 |  | 31.2 | 12.6 | 2.8 |  |  | lower |  |  |  |  |  | 
CC(=O)N[C@@H](Cc1ccccc1)C(=O)Oc1ccc2c(c1)[C@]13CCCC[C@@H]1[C@H](C2)N(C)CC3 [3-(N-Ac-L-Phe)-dextrorphan] |  | 44 | 18 | 27.7 | 8.0 | 2.8 | much steadier | much smaller | much smaller |  |  |  |  |  | 
CC(=O)N[C@@H](CCC(=O)O)C(=O)Oc1ccc2c(c1)[C@]13CCCC[C@@H]1C(C2)N(C)CC3 [3-(N-Ac-L-Glu)-dextrorphan] | around 2 hours | 43 | 14 | 18.4 | 4.8 | 1.8 | steadier | much smaller | much smaller |  |  |  |  |  | 
CC[C@@H](C)[C@@H](NC(C)=O)C(=O)Oc1ccc2c(c1)[C@]13CCCC[C@@H]1C(C2)N(C)CC3 [3-(N-Ac-D-Ile)-dextrorphan] |  | 880 | 672 | 294.6 | 81.9 | 2.9 |  | much smaller | much smaller |  |  |  |  | > 8 times | over 6 times
CC(=O)N[C@H](CCC(=O)O)C(=O)Oc1ccc2c(c1)[C@]13CCCC[C@@H]1C(C2)N(C)CC3 [3-(N-Ac-D-Glu)-dextrorphan] | around 2 hours | 30 | 10 | 12.7 | 3.5 | 2.4 | steadier | much smaller | much smaller |  |  |  |  |  | 
CC[C@H](C)[C@H](NC(C)=O)C(=O)Oc1ccc2c(c1)[C@]13CCCC[C@@H]1C(C2)N(C)CC3 [3-(N-Ac-L-Ile)-dextrorphan] |  |  |  | 27.4 | 13.9 | 2.2 |  |  |  |  |  |  |  |  | 
